# Assay results as given in ChEMBL document CHEMBL4138146, “A Schmidt rearrangement-mediated synthesis of novel tetrahydro-benzo[1,4]diazepin-5-ones as potential anticancer and antiprotozoal agents” (Eur J Med Chem, 2017).
# Test system: UO-31
# Assay: Growth inhibition of human UO31 cells assessed as cell growth at 10 uM incubated for 48 hrs by sulforhodamine B assay relative to control
# Type: functional
# Settings: UO-31, 48 h, read-out: Activity
row,Compound,growth at 10 µM [%]
1,Cc1ccc2[nH]c(=O)c(C3CNC(=O)c4ccccc4N3)cc2c1 (stereo not drawn),84.3

# Test system: U-251
# Assay: Growth inhibition of human U251 cells assessed as cell growth at 10 uM incubated for 48 hrs by sulforhodamine B assay relative to control
# Type: functional
# Settings: U-251, 48 h, read-out: Activity
row,Compound,growth at 10 µM [%]
1,Cc1ccc2[nH]c(=O)c(C3CNC(=O)c4ccccc4N3)cc2c1 (stereo not drawn),99.5

# Test system: CCRF-CEM
# Assay: Growth inhibition of human CCRF-CEM cells assessed as cell growth at 10 uM incubated for 48 hrs by sulforhodamine B assay relative to control
# Type: functional
# Settings: read-out: Activity
row,Compound,growth at 10 µM [%]
1,Cc1ccc2[nH]c(=O)c(C3CNC(=O)c4ccccc4N3)cc2c1 (stereo not drawn),97.4

# Test system: SF-539
# Assay: Growth inhibition of human SF539 cells assessed as cell growth at 10 uM incubated for 48 hrs by sulforhodamine B assay relative to control
# Type: functional
# Settings: SF-539, 48 h, read-out: Activity
row,Compound,growth at 10 µM [%]
1,Cc1ccc2[nH]c(=O)c(C3CNC(=O)c4ccccc4N3)cc2c1 (stereo not drawn),96.5

# Test system: SN12C
# Assay: Growth inhibition of human SN12C cells assessed as cell growth at 10 uM incubated for 48 hrs by sulforhodamine B assay relative to control
# Type: functional
# Settings: read-out: Activity
row,Compound,growth at 10 µM [%]
1,Cc1ccc2[nH]c(=O)c(C3CNC(=O)c4ccccc4N3)cc2c1 (stereo not drawn),99.7

# Test system: T47D
# Assay: Growth inhibition of human T47D cells assessed as cell growth at 10 uM incubated for 48 hrs by sulforhodamine B assay relative to control
# Type: functional
# Settings: read-out: Activity
row,Compound,growth at 10 µM [%]
1,Cc1ccc2[nH]c(=O)c(C3CNC(=O)c4ccccc4N3)cc2c1 (stereo not drawn),116

# Test system: A549
# Assay: Growth inhibition of human A549/ATCC cells assessed as cell growth at 10 uM incubated for 48 hrs by sulforhodamine B assay relative to control
# Type: functional
# Settings: A549, 48 h, read-out: Activity
row,Compound,growth at 10 µM [%]
1,Cc1ccc2[nH]c(=O)c(C3CNC(=O)c4ccccc4N3)cc2c1 (stereo not drawn),95.7

# Test system: Malme-3M
# Assay: Growth inhibition of human MALME-3M cells assessed as cell growth at 10 uM incubated for 48 hrs by sulforhodamine B assay relative to control
# Type: functional
# Settings: read-out: Activity
row,Compound,growth at 10 µM [%]
1,Cc1ccc2[nH]c(=O)c(C3CNC(=O)c4ccccc4N3)cc2c1 (stereo not drawn),109

# Test system: OVCAR-3
# Assay: Growth inhibition of human OVCAR3 cells assessed as cell growth at 10 uM incubated for 48 hrs by sulforhodamine B assay relative to control
# Type: functional
# Settings: OVCAR-3, 48 h, read-out: Activity
row,Compound,growth at 10 µM [%]
1,Cc1ccc2[nH]c(=O)c(C3CNC(=O)c4ccccc4N3)cc2c1 (stereo not drawn),107

# Test system: A498
# Assay: Growth inhibition of human A498 cells assessed as cell growth at 10 uM incubated for 48 hrs by sulforhodamine B assay relative to control
# Type: functional
# Settings: A498, 48 h, read-out: Activity
row,Compound,growth at 10 µM [%]
1,Cc1ccc2[nH]c(=O)c(C3CNC(=O)c4ccccc4N3)cc2c1 (stereo not drawn),93

# Test system: HCT-116
# Assay: Growth inhibition of human HCT116 cells assessed as cell growth at 10 uM incubated for 48 hrs by sulforhodamine B assay relative to control
# Type: functional
# Settings: HCT-116, 48 h, read-out: Activity
row,Compound,growth at 10 µM [%]
1,Cc1ccc2[nH]c(=O)c(C3CNC(=O)c4ccccc4N3)cc2c1 (stereo not drawn),106

# Test system: SW-620
# Assay: Growth inhibition of human SW620 cells assessed as cell growth at 10 uM incubated for 48 hrs by sulforhodamine B assay relative to control
# Type: functional
# Settings: SW-620, 48 h, read-out: Activity
row,Compound,growth at 10 µM [%]
1,Cc1ccc2[nH]c(=O)c(C3CNC(=O)c4ccccc4N3)cc2c1 (stereo not drawn),106

# Test system: NCI-H522
# Assay: Growth inhibition of human NCI-H522 cells assessed as cell growth at 10 uM incubated for 48 hrs by sulforhodamine B assay relative to control
# Type: functional
# Settings: NCI-H522, 48 h, read-out: Activity
row,Compound,growth at 10 µM [%]
1,Cc1ccc2[nH]c(=O)c(C3CNC(=O)c4ccccc4N3)cc2c1 (stereo not drawn),93.6

# Test system: NCI-H226
# Assay: Growth inhibition of human NCI-H226 cells assessed as cell growth at 10 uM incubated for 48 hrs by sulforhodamine B assay relative to control
# Type: functional
# Settings: NCI-H226, 48 h, read-out: Activity
row,Compound,growth at 10 µM [%]
1,Cc1ccc2[nH]c(=O)c(C3CNC(=O)c4ccccc4N3)cc2c1 (stereo not drawn),109

# Test system: TK-10
# Assay: Growth inhibition of human TK10 cells assessed as cell growth at 10 uM incubated for 48 hrs by sulforhodamine B assay relative to control
# Type: functional
# Settings: TK-10, 48 h, read-out: Activity
row,Compound,growth at 10 µM [%]
1,Cc1ccc2[nH]c(=O)c(C3CNC(=O)c4ccccc4N3)cc2c1 (stereo not drawn),104

# Test system: NCI-H322M
# Assay: Growth inhibition of human NCI-H322M cells assessed as cell growth at 10 uM incubated for 48 hrs by sulforhodamine B assay relative to control
# Type: functional
# Settings: read-out: Activity
row,Compound,growth at 10 µM [%]
1,Cc1ccc2[nH]c(=O)c(C3CNC(=O)c4ccccc4N3)cc2c1 (stereo not drawn),110

# Test system: ACHN
# Assay: Growth inhibition of human ACHN cells assessed as cell growth at 10 uM incubated for 48 hrs by sulforhodamine B assay relative to control
# Type: functional
# Settings: read-out: Activity
row,Compound,growth at 10 µM [%]
1,Cc1ccc2[nH]c(=O)c(C3CNC(=O)c4ccccc4N3)cc2c1 (stereo not drawn),103

# Test system: RXF 393
# Assay: Growth inhibition of human RXF393 cells assessed as cell growth at 10 uM incubated for 48 hrs by sulforhodamine B assay relative to control
# Type: functional
# Settings: RXF 393, 48 h, read-out: Activity
row,Compound,growth at 10 µM [%]
1,Cc1ccc2[nH]c(=O)c(C3CNC(=O)c4ccccc4N3)cc2c1 (stereo not drawn),109

# Test system: KM12
# Assay: Growth inhibition of human KM12 cells assessed as cell growth at 10 uM incubated for 48 hrs by sulforhodamine B assay relative to control
# Type: functional
# Settings: KM12, 48 h, read-out: Activity
row,Compound,growth at 10 µM [%]
1,Cc1ccc2[nH]c(=O)c(C3CNC(=O)c4ccccc4N3)cc2c1 (stereo not drawn),102

# Test system: OVCAR-5
# Assay: Growth inhibition of human OVCAR5 cells assessed as cell growth at 10 uM incubated for 48 hrs by sulforhodamine B assay relative to control
# Type: functional
# Settings: OVCAR-5, 48 h, read-out: Activity
row,Compound,growth at 10 µM [%]
1,Cc1ccc2[nH]c(=O)c(C3CNC(=O)c4ccccc4N3)cc2c1 (stereo not drawn),92.9

# Test system: NCI/ADR-RES
# Assay: Growth inhibition of human NCI/ADR-RES cells assessed as cell growth at 10 uM incubated for 48 hrs by sulforhodamine B assay relative to control
# Type: functional
# Settings: read-out: Activity
row,Compound,growth at 10 µM [%]
1,Cc1ccc2[nH]c(=O)c(C3CNC(=O)c4ccccc4N3)cc2c1 (stereo not drawn),108

# Test system: COLO 205
# Assay: Growth inhibition of human COLO205 cells assessed as cell growth at 10 uM incubated for 48 hrs by sulforhodamine B assay relative to control
# Type: functional
# Settings: COLO 205, 48 h, read-out: Activity
row,Compound,growth at 10 µM [%]
1,Cc1ccc2[nH]c(=O)c(C3CNC(=O)c4ccccc4N3)cc2c1 (stereo not drawn),107

# Test system: SK-MEL-28
# Assay: Growth inhibition of human SK-MEL-28 cells assessed as cell growth at 10 uM incubated for 48 hrs by sulforhodamine B assay relative to control
# Type: functional
# Settings: SK-MEL-28, 48 h, read-out: Activity
row,Compound,growth at 10 µM [%]
1,Cc1ccc2[nH]c(=O)c(C3CNC(=O)c4ccccc4N3)cc2c1 (stereo not drawn),108

# Test system: SK-OV-3
# Assay: Growth inhibition of human SKOV3 cells assessed as cell growth at 10 uM incubated for 48 hrs by sulforhodamine B assay relative to control
# Type: functional
# Settings: SK-OV-3, 48 h, read-out: Activity
row,Compound,growth at 10 µM [%]
1,Cc1ccc2[nH]c(=O)c(C3CNC(=O)c4ccccc4N3)cc2c1 (stereo not drawn),110

# Test system: UACC-62
# Assay: Growth inhibition of human UACC62 cells assessed as cell growth at 10 uM incubated for 48 hrs by sulforhodamine B assay relative to control
# Type: functional
# Settings: UACC-62, 48 h, read-out: Activity
row,Compound,growth at 10 µM [%]
1,Cc1ccc2[nH]c(=O)c(C3CNC(=O)c4ccccc4N3)cc2c1 (stereo not drawn),98.4

# Test system: SNB-19
# Assay: Growth inhibition of human SNB19 cells assessed as cell growth at 10 uM incubated for 48 hrs by sulforhodamine B assay relative to control
# Type: functional
# Settings: SNB-19, 48 h, read-out: Activity
row,Compound,growth at 10 µM [%]
1,Cc1ccc2[nH]c(=O)c(C3CNC(=O)c4ccccc4N3)cc2c1 (stereo not drawn),99.3

# Test system: OVCAR-8
# Assay: Growth inhibition of human OVCAR8 cells assessed as cell growth at 10 uM incubated for 48 hrs by sulforhodamine B assay relative to control
# Type: functional
# Settings: OVCAR-8, 48 h, read-out: Activity
row,Compound,growth at 10 µM [%]
1,Cc1ccc2[nH]c(=O)c(C3CNC(=O)c4ccccc4N3)cc2c1 (stereo not drawn),113

# Test system: HOP-92
# Assay: Growth inhibition of human HOP92 cells assessed as cell growth at 10 uM incubated for 48 hrs by sulforhodamine B assay relative to control
# Type: functional
# Settings: HOP-92, 48 h, read-out: Activity
row,Compound,growth at 10 µM [%]
1,Cc1ccc2[nH]c(=O)c(C3CNC(=O)c4ccccc4N3)cc2c1 (stereo not drawn),110

# Test system: HT-29
# Assay: Growth inhibition of human HT-29 cells assessed as cell growth at 10 uM incubated for 48 hrs by sulforhodamine B assay relative to control
# Type: functional
# Settings: HT-29, 48 h, read-out: Activity
row,Compound,growth at 10 µM [%]
1,Cc1ccc2[nH]c(=O)c(C3CNC(=O)c4ccccc4N3)cc2c1 (stereo not drawn),104

# Test system: HOP-62
# Assay: Growth inhibition of human HOP62 cells assessed as cell growth at 10 uM incubated for 48 hrs by sulforhodamine B assay relative to control
# Type: functional
# Settings: HOP-62, 48 h, read-out: Activity
row,Compound,growth at 10 µM [%]
1,Cc1ccc2[nH]c(=O)c(C3CNC(=O)c4ccccc4N3)cc2c1 (stereo not drawn),97.1

# Test system: MDA-MB-468
# Assay: Growth inhibition of human MDA-MB-468 cells assessed as cell growth at 10 uM incubated for 48 hrs by sulforhodamine B assay relative to control
# Type: functional
# Settings: MDA-MB-468, 48 h, read-out: Activity
row,Compound,growth at 10 µM [%]
1,Cc1ccc2[nH]c(=O)c(C3CNC(=O)c4ccccc4N3)cc2c1 (stereo not drawn),110

# Test system: OVCAR-4
# Assay: Growth inhibition of human OVCAR4 cells assessed as cell growth at 10 uM incubated for 48 hrs by sulforhodamine B assay relative to control
# Type: functional
# Settings: OVCAR-4, 48 h, read-out: Activity
row,Compound,growth at 10 µM [%]
1,Cc1ccc2[nH]c(=O)c(C3CNC(=O)c4ccccc4N3)cc2c1 (stereo not drawn),108

# Test system: NCI-H23
# Assay: Growth inhibition of human NCI-H23 cells assessed as cell growth at 10 uM incubated for 48 hrs by sulforhodamine B assay relative to control
# Type: functional
# Settings: NCI-H23, 48 h, read-out: Activity
row,Compound,growth at 10 µM [%]
1,Cc1ccc2[nH]c(=O)c(C3CNC(=O)c4ccccc4N3)cc2c1 (stereo not drawn),97.1
